Read-outs that look alike come from different tables or passages of the source.
Key:
[1] = tested on: secondary conditioned response; assay: CR2: inhibition of the secondary conditioned response; format: in vivo, rat; details: ip, read-out: CR2 (ED50)
Description: (§1) The symbols CR and CR2 relate, respectively, to the tests of inhibition of the primary and secondary conditioned response according to the method of L. Cook et al., Ann. […] The inhibition of apomorphine emesis test in the dog is carried out according to the method of G. Chen. et al., J. Pharm. Exptl.

conditioned behavior = assay: conditioned behavior; format: in vivo, rat; details: in comparison with chlorpromazine, in words
Description: as §1

[2] = tested on: primary conditioned response; assay: CR: inhibition of the primary conditioned response; format: in vivo, rat; details: ip, read-out: CR (ED50)
Description: as §1

cardiovascular system = assay: side effects on the cardiovascular system; format: in vivo; details: in comparison with chlorpromazine; at a dose level 5 to 10 times higher than that of chlorpromazine
[3] = acute toxicity (LD50), rat i.p.; details: in vivo, ip
Apomorphine emesis = assay: inhibition of apomorphine emesis test in the dog; format: in vivo; details: for ED50: Canis lupus familiaris, ip, read-out: Apomorphine emesis (ED50)
Description: as §1

[4] = rat, i.p., secondary conditioned response
[5] = rat, i.p., primary conditioned response

Row | SMILES | ED50 [1, 4] [mg/kg] | activity on the conditioned behavior (conditioned behavior) | ED50 [2, 5] [mg/kg] | side effects on the cardiovascular system (cardiovascular system) | LD50 [3] [mg/kg] | ED50 (Apomorphine emesis; dog, i.p.) [mg/kg] | anti-emetic effect (Apomorphine emesis; in comparison with chlorpromazine, in words) | ED50 ([1]; Rattus norvegicus) [mg/kg] | ED50 ([2]; Rattus norvegicus) [mg/kg] | ED50 (Apomorphine emesis) [mg/kg]
1 | CC1(C)CN(CCN2CCN(c3cccc(Cl)c3)C2=O)C1 [A, 1-(m-chlorophenyl)-3-[2-(3,3-dimethylazetidin-1-yl)ethyl]-2-imidazolidinone] | 0.25 | more specific activity on the conditioned behavior | 0.5 | much lower side effects on the cardiovascular system | 200 | < 0.05 | more potent anti-emetic effect |  |  | 
2 | CN(C)CCCN1c2ccccc2Sc2ccc(Cl)cc21 [CPZ, chlorpromazine] |  |  |  |  | 120 |  |  | 0.96 | 3.95 | 1
3 | CN(C)CCN1CCN(c2cccc(Cl)c2)C1=O [Imidoline, 1-(m-chlorophenyl)-3-(2-dimethylaminoethyl)-2-imidazolidinone] | 2.5 |  | 5 to 10 |  | 200 | 0.25 |  |  |  | 

Reference: US4011238A, “2-Imidazolidione derivatives” (Gruppo Lepetit S.p.A., priority 1972, dated 1977)
